Measured values: patent publication US6989443B2, “Carboranylporphyrins and uses thereof” (Brookhaven Science Associates, LLC, priority 2004, dated 2006)

Assays:
malignant brain tumors = conditions: in vivo; cited from earlier work
EMT-6 mammary carcinomas = test: Biodistribution of porphyrin IX in mice bearing EMT-6 carcinomas (tissue boron analyses); assay type: in vivo, BALB/c mice; conditions: for Average boron concentration, Blood / Average boron concentration, Brain / Average boron concentration, EMT-6 Tumor / Average boron concentration, Liver: 87 mg/kg (30 mg B/kg) in 3 i.p. injections over 8 hours, n = 5
Description: (§1) BALB/c mice bearing subcutaneously implanted EMT-6 mammary carcinomas implanted on the dorsal thorax were given a total dose of 87 milligrams porphyrin compound (IX) per kilogram body weight (30 mg B/kg) in 3 intraperitoneal (i.p.) injections over a period of 8 hours. At two and four days after the last injection, mice were euthanized, and tumor, blood, brain, and liver were removed for boron analyses. The blood was first analyzed for hematologic parameters that indicate toxicity before it was analyzed for boron.

[1] = Weight changes and hematologic parameters from porphyrin (IX) in mice; conditions: for % Weight change / Granulocytes / Lymphocytes / Platelets: median (and range)
Description: as §1

[2] = 2 days after last injection, 87 mg/kg (30 mg B/kg)
[3] = 4 days after last injection, 87 mg/kg (30 mg B/kg)

**Q.** Which chemical toxicity (malignant brain tumors) does the source give for `N[C@@H](Cc1ccc(B(O)O)cc1)C(=O)O` [BPA, p-boronophenylalanine] here?
**A.** Its chemical toxicity is “low chemical toxicity”.

**Q.** With “Copper meso-5,10,15,20-tetrakis[3-(3,5-o-dicarboranyl methoxybenzyloxy)phenyl]porphyrin [Porphyrin compound (IX)]” as the compound, how does the “Average boron concentration, Blood” value (EMT-6 mammary carcinomas; 2 days after last injection) read?
**A.** The value was 0.5 ± 0.2 μg B/g.

**Q.** And the “Average boron concentration, Brain” value (EMT-6 mammary carcinomas; 2 days after last injection)?
**A.** Its value is 0.2 ± 0.0 μg B/g.

**Q.** What about the “Average boron concentration, EMT-6 Tumor” value (EMT-6 mammary carcinomas; 2 days after last injection) of the same compound?
**A.** Its value is 43.5 ± 10.0 μg B/g.

**Q.** And the “Average boron concentration, Liver” value (EMT-6 mammary carcinomas; 2 days after last injection)?
**A.** Its value is 353 ± 55 μg B/g.

**Q.** What about the “Average boron concentration, Blood” value (EMT-6 mammary carcinomas; 4 days after last injection) of the same compound?
**A.** Its value is 0.2 ± 0.1 μg B/g.

**Q.** What about the “Average boron concentration, Brain” value (EMT-6 mammary carcinomas; 4 days after last injection) of the same compound?
**A.** The value was 0.3 ± 0.2 μg B/g.

**Q.** And the “Average boron concentration, EMT-6 Tumor” value (EMT-6 mammary carcinomas; 4 days after last injection)?
**A.** Its value is 27.8 ± 7.6 μg B/g.

**Q.** What about the “Average boron concentration, Liver” value (EMT-6 mammary carcinomas; 4 days after last injection) of the same compound?
**A.** The value was 250 ± 70 μg B/g.

**Q.** What about the “tumor to brain boron ratio” value (EMT-6 mammary carcinomas; EMT-6 tumor-bearing mice, compared with tumor to blood ratio) of the same compound?
**A.** Its value is “even higher”.

**Q.** What about the “tumor boron concentrations, adequacy for therapy” value (EMT-6 mammary carcinomas; particularly at the two-day time-point) of the same compound?
**A.** The value was “adequate for therapy”.

**Q.** What about the “weight change compared to solvent-injected mice” value ([1]; 87 mg/kg (30 mg B/kg)) of the same compound?
**A.** The value was “no differences between porphyrin- and solvent-injected mice”.

**Q.** What about the “platelet count compared to solvent-only mice” value ([1]; 2-day time point) of the same compound?
**A.** Its value is “small but significant decrease”.

**Q.** And the “platelet count compared to solvent-only group” value ([1]; 4-day time point)?
**A.** Its value is “rebounded to a level greater than those from the solvent-only group”.

**Q.** What about the “% Weight change” value [1, 2] of the same compound?
**A.** Its value is 0.4 (−4.9–2.5) %.

**Q.** What about the Granulocytes [1, 2] of the same compound?
**A.** Its Granulocytes is 53 (42–60) % WBC.

**Q.** And the Lymphocytes [1, 2]?
**A.** Its Lymphocytes is 44 (37–56) % WBC.

**Q.** What about the Platelets [1, 2] of the same compound?
**A.** The Platelets was 193 (51–432) 10^3/mm^3.

**Q.** And the “% Weight change” value [1, 3]?
**A.** The value was −0.6 (−4.7–1.5) %.

**Q.** And the Granulocytes [1, 3]?
**A.** Its Granulocytes is 62 (57–67) % WBC.

**Q.** What about the Lymphocytes [1, 3] of the same compound?
**A.** Its Lymphocytes is 35 (30–39) % WBC.

**Q.** And the Platelets [1, 3]?
**A.** Its Platelets is 917 (670–1128) 10^3/mm^3.
